Source: PMC9896412, “The role of invariant surface glycoprotein 75 in xenobiotic acquisition by African trypanosomes” (Microbial Cell, 2023)

What was measured:
[1] = target: T1, invariant surface glycoprotein 75 (ISG75) (Trypanosoma brucei, UniProt Q1WK95); assay: biochemical
[2] = target: T1, invariant surface glycoprotein 75 (ISG75); assay: ITC (tag-free protein from S2 cells); assay type: binding

Structure (SMILES)	Kd [1]	Kd [2]
Cc1ccc(C(=O)Nc2ccc(S(=O)(=O)O)c3cc(S(=O)(=O)O)cc(S(=O)(=O)O)c23)cc1NC(=O)c1cccc(NC(=O)Nc2cccc(C(=O)Nc3cc(C(=O)Nc4ccc(S(=O)(=O)O)c5cc(S(=O)(=O)O)cc(S(=O)(=O)O)c45)ccc3C)c2)c1 [suramin]	3200 nM	–
Cc1cc(-c2ccc(/N=N/c3c(S(=O)(=O)O)cc4cc(S(=O)(=O)O)cc(N)c4c3O)c(C)c2)ccc1/N=N/c1c(S(=O)(=O)O)cc2cc(S(=O)(=O)O)cc(N)c2c1O [trypan blue]	–	600 nM
